Measured values from publication PMC5218480 (PLoS ONE, 2017).

Test system: MV-4-11 cells
Assay: Gene expression microarray analysis (Affymetrix PrimeView) and GSEA
Format: cell-based, human
Parameters: RFU PODN (11730768_x_at) / Fold change /veh PODN (11730768_x_at) / RFU LINC00158 (11744669_a_at) / Fold change /veh LINC00158 (11744669_a_at) / RFU DUSP10 (11751237_a_at) / Fold change /veh DUSP10 (11751237_a_at) / RFU ID3 (11757404_x_at) / Fold change /veh ID3 (11757404_x_at) / RFU PLEKHG5 (11737974_s_at) / Fold change /veh PLEKHG5 (11737974_s_at) / RFU LRRC4B (11730491_at) / Fold change /veh LRRC4B (11730491_at) / RFU GIMAP4 (11747438_a_at) / Fold change /veh GIMAP4 (11747438_a_at) / RFU KRT8 (11758183_x_at) / Fold change /veh KRT8 (11758183_x_at) / RFU CNN1 (11734310_a_at) / Fold change /veh CNN1 (11734310_a_at) / RFU VPS37D (11726825_at) / Fold change /veh VPS37D (11726825_at) / RFU C10orf10 (11716522_x_at) / Fold change /veh C10orf10 (11716522_x_at) / RFU KIR2DL2 /// KIR2DL4 /// KIR2DL5A /// KIR2DL5B /// KIR2DS1 /// KIR2DS2 /// KIR2DS3 /// KIR2DS4 /// KIR3DL3 /// KIR3DL3 /// KIR3DS1 (11738374_at) / Fold change /veh KIR2DL2 /// KIR2DL4 /// KIR2DL5A /// KIR2DL5B /// KIR2DS1 /// KIR2DS2 /// KIR2DS3 /// KIR2DS4 /// KIR3DL3 /// KIR3DL3 /// KIR3DS1 (11738374_at) / RFU C1QL1 (11718748_at) / Fold change /veh C1QL1 (11718748_at) / RFU TMPRSS4 (11747572_a_at) / Fold change /veh TMPRSS4 (11747572_a_at) / RFU HAMP (11756126_x_at) / Fold change /veh HAMP (11756126_x_at) / RFU RNFT2 (11725882_a_at) / Fold change /veh RNFT2 (11725882_a_at) / RFU NR4A2 (11747474_a_at) / Fold change /veh NR4A2 (11747474_a_at) / RFU ABCC12 (11746883_a_at) / Fold change /veh ABCC12 (11746883_a_at) / RFU TMEM136 (11760407_x_at) / Fold change /veh TMEM136 (11760407_x_at) / RFU CLDN22 /// WWC2 (11732394_at) / Fold change /veh CLDN22 /// WWC2 (11732394_at) / RFU HLA-DPB1 (11760878_x_at) / Fold change /veh HLA-DPB1 (11760878_x_at) / RFU SPINT1 (11716480_a_at) / Fold change /veh SPINT1 (11716480_a_at) / RFU GAP43 (11754022_s_at) / Fold change /veh GAP43 (11754022_s_at) / RFU A4GNT (11735810_at) / Fold change /veh A4GNT (11735810_at) / RFU PRB3 (11715151_x_at) / Fold change /veh PRB3 (11715151_x_at) / RFU TUBB4B (11761932_at) / Fold change /veh TUBB4B (11761932_at) / RFU CAPN14 (11732068_a_at) / Fold change /veh CAPN14 (11732068_a_at) / RFU TMCC2 (11721928_a_at) / Fold change /veh TMCC2 (11721928_a_at) / RFU IRGQ (11745062_a_at) / Fold change /veh IRGQ (11745062_a_at) / RFU FAM174B (11720279_a_at) / Fold change /veh FAM174B (11720279_a_at) / RFU TMPRSS4 (11748680_a_at) / Fold change /veh TMPRSS4 (11748680_a_at) / RFU FAM212B (11763350_a_at) / Fold change /veh FAM212B (11763350_a_at) / RFU PLEKHG5 (11743358_a_at) / Fold change /veh PLEKHG5 (11743358_a_at) / RFU ZSCAN30 (11745921_a_at) / Fold change /veh ZSCAN30 (11745921_a_at) / RFU CMKLR1 (11741424_a_at) / Fold change /veh CMKLR1 (11741424_a_at) / RFU LOC101060620 /// MAPK8IP1 (11723275_at) / Fold change /veh LOC101060620 /// MAPK8IP1 (11723275_at) / RFU SPTSSB (11747773_x_at) / Fold change /veh SPTSSB (11747773_x_at) / RFU PRSS12 (11739890_at) / Fold change /veh PRSS12 (11739890_at) / RFU BIN1 (11741810_x_at) / Fold change /veh BIN1 (11741810_x_at) / RFU WNT11 (11732464_a_at) / Fold change /veh WNT11 (11732464_a_at) / RFU C10orf10 (11716521_a_at) / Fold change /veh C10orf10 (11716521_a_at) / RFU C5orf56 (11738089_at) / Fold change /veh C5orf56 (11738089_at) / RFU CYB561 (11721691_x_at) / Fold change /veh CYB561 (11721691_x_at) / RFU ANKRD19P (11752326_a_at) / Fold change /veh ANKRD19P (11752326_a_at) / RFU OR2T12 /// OR2T33 /// OR2T8 (11738714_s_at) / Fold change /veh OR2T12 /// OR2T33 /// OR2T8 (11738714_s_at) / RFU VCAN (11748164_a_at) / Fold change /veh VCAN (11748164_a_at) / RFU JSRP1 (11732532_at) / Fold change /veh JSRP1 (11732532_at) / RFU KRTAP10-11 (11738290_x_at) / Fold change /veh KRTAP10-11 (11738290_x_at) / RFU MYO3A (11730013_a_at) / Fold change /veh MYO3A (11730013_a_at) / RFU EBF3 (11725865_a_at) / Fold change /veh EBF3 (11725865_a_at) / RFU CAMK2N1 (11719241_x_at) / Fold change /veh CAMK2N1 (11719241_x_at) / RFU C5orf56 (11738088_a_at) / Fold change /veh C5orf56 (11738088_a_at) / RFU OLFML3 (11715873_a_at) / Fold change /veh OLFML3 (11715873_a_at) / RFU LOC100653217 /// NTM (11731650_a_at) / Fold change /veh LOC100653217 /// NTM (11731650_a_at) / RFU MAPK11 (11762145_a_at) / Fold change /veh MAPK11 (11762145_a_at) / RFU FIZ1 (11724087_x_at) / Fold change /veh FIZ1 (11724087_x_at) / RFU OASL (11726364_x_at) / Fold change /veh OASL (11726364_x_at) / RFU SOX15 (11748057_x_at) / Fold change /veh SOX15 (11748057_x_at) / RFU CD79A (11719716_a_at) / Fold change /veh CD79A (11719716_a_at) / RFU HIST1H1D (11736915_at) / Fold change /veh HIST1H1D (11736915_at) / RFU CASKIN2 (11723855_a_at) / Fold change /veh CASKIN2 (11723855_a_at) / RFU LOC730098 (11760151_x_at) / Fold change /veh LOC730098 (11760151_x_at) / RFU OR4N2 (11742367_at) / Fold change /veh OR4N2 (11742367_at) / RFU PRRT2 (11749266_a_at) / Fold change /veh PRRT2 (11749266_a_at) / RFU SNX32 (11753110_a_at) / Fold change /veh SNX32 (11753110_a_at) / RFU CDHR5 (11726645_a_at) / Fold change /veh CDHR5 (11726645_a_at) / RFU RCAN1 (11760418_a_at) / Fold change /veh RCAN1 (11760418_a_at) / RFU FAM167A (11723789_a_at) / Fold change /veh FAM167A (11723789_a_at) / RFU FAM26E (11764081_at) / Fold change /veh FAM26E (11764081_at) / RFU ISYNA1 (11749810_s_at) / Fold change /veh ISYNA1 (11749810_s_at) / RFU ACY1 (11761880_at) / Fold change /veh ACY1 (11761880_at) / RFU 11764098_at / Fold change /veh 11764098_at / RFU SAMD14 (11745864_x_at) / Fold change /veh SAMD14 (11745864_x_at) / RFU NPB (11741838_a_at) / Fold change /veh NPB (11741838_a_at) / RFU TMPRSS6 (11731388_a_at) / Fold change /veh TMPRSS6 (11731388_a_at) / RFU KRTAP10-2 (11738614_at) / Fold change /veh KRTAP10-2 (11738614_at) / RFU ARHGAP8 /// PRR5-ARHGAP8 (11727945_x_at) / Fold change /veh ARHGAP8 /// PRR5-ARHGAP8 (11727945_x_at) / RFU KRTAP5-7 /// NADSYN1 (11734609_at) / Fold change /veh KRTAP5-7 /// NADSYN1 (11734609_at) / RFU RASL12 (11751679_a_at) / Fold change /veh RASL12 (11751679_a_at) / RFU CDKN2B (11736163_a_at) / Fold change /veh CDKN2B (11736163_a_at) / RFU PRF1 (11729649_at) / Fold change /veh PRF1 (11729649_at) / RFU, ZNF638 /// ZNF638-IT1 / Fold change vs veh, ZNF638 /// ZNF638-IT1 / RFU, PANK3 / Fold change vs veh, PANK3 / RFU, SH3YL1 / Fold change vs veh, SH3YL1 / RFU, ZEB2 / Fold change vs veh, ZEB2 / RFU, NRIP1 / Fold change vs veh, NRIP1 / RFU, PTTG1IP / Fold change vs veh, PTTG1IP / RFU, CAPN2 / Fold change vs veh, CAPN2 / RFU, MED14 / Fold change vs veh, MED14 / RFU, SNORA58 / Fold change vs veh, SNORA58 / RFU, C1orf63 / Fold change vs veh, C1orf63 / RFU, LRRFIP1 / Fold change vs veh, LRRFIP1 / RFU, NDUFAF7 / Fold change vs veh, NDUFAF7 / RFU, SLC12A2 / Fold change vs veh, SLC12A2 / RFU, IBTK / Fold change vs veh, IBTK / RFU, ESF1 / Fold change vs veh, ESF1 / Fold change vs veh, TMEM50B / RFU, TAOK1 / Fold change vs veh, TAOK1 / RFU, ACBD3 / Fold change vs veh, ACBD3 / RFU, TMA16 / Fold change vs veh, TMA16 / RFU, RWDD3 / Fold change vs veh, RWDD3 / RFU, BCAT1 / Fold change vs veh, BCAT1 / RFU, EDEM3 / Fold change vs veh, EDEM3 / RFU, TMEM33 / Fold change vs veh, TMEM33 / RFU, WDR75 / Fold change vs veh, WDR75 / RFU, AHCTF1 / Fold change vs veh, AHCTF1 / RFU, TFRC / Fold change vs veh, TFRC / RFU, ZDHHC17 / Fold change vs veh, ZDHHC17 / RFU, NOM1 / Fold change vs veh, NOM1 / RFU, ARL8B / Fold change vs veh, ARL8B / RFU, ZBTB11 / Fold change vs veh, ZBTB11 / RFU, TAMM41 / Fold change vs veh, TAMM41 / RFU, KIAA1704 /// LOC100996395 / Fold change vs veh, KIAA1704 /// LOC100996395 / RFU, ING1 / Fold change vs veh, ING1 / RFU, TRMT61B / Fold change vs veh, TRMT61B / RFU, FUBP3 / Fold change vs veh, FUBP3 / RFU, TP53 / Fold change vs veh, TP53 / RFU, TNKS2 / Fold change vs veh, TNKS2 / RFU, ZFP14 / Fold change vs veh, ZFP14 / RFU, ACTR2 / Fold change vs veh, ACTR2 / RFU, PPP3R1 / Fold change vs veh, PPP3R1 / RFU, PIK3R1 / Fold change vs veh, PIK3R1 / RFU, HNRNPA1 / Fold change vs veh, HNRNPA1 / RFU, RNF170 / Fold change vs veh, RNF170 / RFU, ZNF28 / Fold change vs veh, ZNF28 / RFU, RNGTT / Fold change vs veh, RNGTT / RFU, OGT / Fold change vs veh, OGT / RFU, BRD1 / Fold change vs veh, BRD1 / RFU, MARS / Fold change vs veh, MARS / RFU, ZNF655 / Fold change vs veh, ZNF655 / RFU, FAHD1 / Fold change vs veh, FAHD1 / RFU, BDP1 / Fold change vs veh, BDP1 / RFU, LRRCC1 / Fold change vs veh, LRRCC1 / RFU, ARID1A / Fold change vs veh, ARID1A / RFU, ZNF146 / Fold change vs veh, ZNF146 / RFU, ZNF330 / Fold change vs veh, ZNF330 / RFU, GPN3 / Fold change vs veh, GPN3 / RFU, C9orf123 / Fold change vs veh, C9orf123 / RFU, N4BP2L2 / Fold change vs veh, N4BP2L2 / RFU, ARFIP1 / Fold change vs veh, ARFIP1 / RFU, FAM179B / Fold change vs veh, FAM179B / RFU, BCL10 / Fold change vs veh, BCL10 / RFU, UHRF1BP1L / Fold change vs veh, UHRF1BP1L / RFU, BET1 / Fold change vs veh, BET1 / RFU, CNOT2 / Fold change vs veh, CNOT2 / RFU, ZNF268 / Fold change vs veh, ZNF268 / Fold change vs veh, ZNF507 / RFU, DGCR2 / Fold change vs veh, DGCR2 / RFU, WDSUB1 / Fold change vs veh, WDSUB1 / Fold change vs veh, HSP90B1 /// MIR3652 / RFU, ADSS / Fold change vs veh, ADSS / RFU, GK / Fold change vs veh, GK / RFU, ZNF148 / Fold change vs veh, ZNF148 / RFU, TAF9 / Fold change vs veh, TAF9 / RFU, SLC1A5 / Fold change vs veh, SLC1A5 / RFU, SLMO2 / Fold change vs veh, SLMO2 / RFU, ABCC4 / Fold change vs veh, ABCC4 / RFU, LOC101060439 /// RAP1B / Fold change vs veh, LOC101060439 /// RAP1B / RFU, RFX7 / Fold change vs veh, RFX7 / RFU, GTPBP10 / Fold change vs veh, GTPBP10 / RFU, CNEP1R1 / Fold change vs veh, CNEP1R1 / RFU, BIVM-ERCC5 /// ERCC5 / Fold change vs veh, BIVM-ERCC5 /// ERCC5 / RFU, ILF3 / Fold change vs veh, ILF3 / RFU 11762660_at / Fold change /veh 11762660_at / RFU VCAN (11757783_s_at) / Fold change /veh VCAN (11757783_s_at) / RFU DDX43 (11728927_at) / Fold change /veh DDX43 (11728927_at) / RFU KRT8 (11758188_x_at) / Fold change /veh KRT8 (11758188_x_at) / RFU NKD1 (11759106_at) / Fold change /veh NKD1 (11759106_at) / RFU SRD5A1 (11742802_a_at) / Fold change /veh SRD5A1 (11742802_a_at) / RFU TPSAB1 /// TPSB2 (11721975_s_at) / Fold change /veh TPSAB1 /// TPSB2 (11721975_s_at) / RFU GSTM3 (11746129_a_at) / Fold change /veh GSTM3 (11746129_a_at) / RFU IL23R (11737362_x_at) / Fold change /veh IL23R (11737362_x_at) / RFU TMEM51 (11727254_a_at) / Fold change /veh TMEM51 (11727254_a_at) / RFU PIWIL2 (11732686_x_at) / Fold change /veh PIWIL2 (11732686_x_at) / RFU ORM1 (11744905_x_at) / Fold change /veh ORM1 (11744905_x_at) / RFU CCDC152 (11743942_at) / Fold change /veh CCDC152 (11743942_at) / RFU ECM1 (11717891_a_at) / Fold change /veh ECM1 (11717891_a_at) / RFU IL23R (11748794_a_at) / Fold change /veh IL23R (11748794_a_at) / RFU TNFAIP8L3 (11732012_x_at) / Fold change /veh TNFAIP8L3 (11732012_x_at) / RFU MBOAT4 (11741988_at) / Fold change /veh MBOAT4 (11741988_at) / RFU 11764193_at / Fold change /veh 11764193_at / RFU TMEM53 (11763286_at) / Fold change /veh TMEM53 (11763286_at) / RFU MAGEB2 (11727129_at) / Fold change /veh MAGEB2 (11727129_at) / RFU TMEM200A (11744735_a_at) / Fold change /veh TMEM200A (11744735_a_at) / RFU CCDC152 (11751479_a_at) / Fold change /veh CCDC152 (11751479_a_at) / RFU FAM211A (11726209_a_at) / Fold change /veh FAM211A (11726209_a_at) / RFU RGS16 (11746705_a_at) / Fold change /veh RGS16 (11746705_a_at) / RFU VCAN (11755009_s_at) / Fold change /veh VCAN (11755009_s_at) / RFU RHOB (11743442_s_at) / Fold change /veh RHOB (11743442_s_at) / RFU RGS16 (11720943_a_at) / Fold change /veh RGS16 (11720943_a_at) / RFU RGS16 (11720944_at) / Fold change /veh RGS16 (11720944_at) / RFU, VPS4B / Fold change vs veh, VPS4B / RFU, CREB1 / Fold change vs veh, CREB1 / RFU, DNAJC13 / Fold change vs veh, DNAJC13 / RFU, GNAQ / Fold change vs veh, GNAQ / RFU, CDK5R1 / Fold change vs veh, CDK5R1 / RFU, ZRANB3 / Fold change vs veh, ZRANB3 / RFU, CUL4A / Fold change vs veh, CUL4A / RFU, CCNY / Fold change vs veh, CCNY / RFU, UFL1 / Fold change vs veh, UFL1 / RFU, COG3 / Fold change vs veh, COG3 / RFU, DIAPH2 / Fold change vs veh, DIAPH2 / RFU, SKA2 / Fold change vs veh, SKA2 / RFU, AFF3 / Fold change vs veh, AFF3 / RFU, LMF1 / Fold change vs veh, LMF1 / RFU, IPO11 / Fold change vs veh, IPO11 / RFU, DFFB / Fold change vs veh, DFFB / RFU, FOXP1 / Fold change vs veh, FOXP1 / RFU, CARD8 / Fold change vs veh, CARD8 / RFU, STRN3 / Fold change vs veh, STRN3 / RFU, ADK / Fold change vs veh, ADK / RFU, RASSF2 / Fold change vs veh, RASSF2 / RFU, WIPF1 / Fold change vs veh, WIPF1 / RFU, LARP1B / Fold change vs veh, LARP1B / RFU, RASA1 / Fold change vs veh, RASA1 / RFU, RB1 / Fold change vs veh, RB1 / RFU, PPFIA1 / Fold change vs veh, PPFIA1 / RFU, MAT2A / Fold change vs veh, MAT2A / RFU, CCT5 / Fold change vs veh, CCT5 / RFU, WDR92 / Fold change vs veh, WDR92 / RFU, CUX1 / Fold change vs veh, CUX1 / RFU, TTC7A / Fold change vs veh, TTC7A / RFU, TMEM135 / Fold change vs veh, TMEM135 / RFU, DEPTOR / Fold change vs veh, DEPTOR / RFU, CPM / Fold change vs veh, CPM / RFU, DNAJB6 / Fold change vs veh, DNAJB6 / RFU, CACNA2D3 / Fold change vs veh, CACNA2D3 / RFU, DTX4 / Fold change vs veh, DTX4 / RFU, TFCP2 / Fold change vs veh, TFCP2 / RFU, GMCL1 /// GMCL1P1 / Fold change vs veh, GMCL1 /// GMCL1P1 / RFU, AEBP2 / Fold change vs veh, AEBP2 / RFU, SNHG1 /// SNORD22 /// SNORD25 /// SNORD26 /// SNORD27 /// SNORD28 /// SNORD29 /// SNORD31 / Fold change vs veh, SNHG1 /// SNORD22 /// SNORD25 /// SNORD26 /// SNORD27 /// SNORD28 /// SNORD29 /// SNORD31 / Fold change (Aza/veh), C12orf56 (ProbeSet 11735607_a_at) / Fold change (ACY-1035/veh), C12orf56 (ProbeSet 11735607_a_at) / Fold change (Aza/veh), FGFR1OP (ProbeSet 11751329_s_at) / Fold change (ACY-1035/veh), FGFR1OP (ProbeSet 11751329_s_at) / Fold change (Aza/veh), VPS36 (ProbeSet 11739960_a_at) / Fold change (ACY-1035/veh), VPS36 (ProbeSet 11739960_a_at) / RFU SYPL1 (11715823_x_at) / Fold change /veh SYPL1 (11715823_x_at) / RFU IGFBP7 (11715501_s_at) / Fold change /veh IGFBP7 (11715501_s_at) / RFU REEP3 (11722064_at) / Fold change /veh REEP3 (11722064_at) / RFU IGLL1 (11728026_x_at) / Fold change /veh IGLL1 (11728026_x_at): dose or concentration left out as unconfirmed
Conditions: MV-4-11 cells, 48 hours

Nc1ccc(-c2cccs2)cc1NC(=O)c1ccc2c(c1)cc(C1CC1)n2CCN1CCOCC1 [ACY-1035]
RFU TPSAB1 /// TPSB2 (11721975_s_at): 19.29 RFU
